Converted amounts (≈) assume the structure as drawn.
Assays:
[1] = Plasma protein binding in human at 5 uM after 4 hrs by equilibrium dialysis method; assay type: ADME, cell-free; conditions: read-out: PPB
[2] = Plasma protein binding in rat at 5 uM after 4 hrs by equilibrium dialysis method; assay type: ADME, cell-free; conditions: read-out: PPB
[3] = Apparent permeability from apical to basolateral side in MDCK cells at 2 uM by LC-MS/MS analysis; assay type: ADME, cell-based, Canis lupus familiaris; conditions: dog
[4] = Apparent permeability from basolateral to apical side in MDCK cells at 2 uM by LC-MS/MS analysis; assay type: ADME, cell-based, Canis lupus familiaris; conditions: dog
[5] = Kinetic aqueous solubility of the compound in PBS buffer at 23 degC after 24 hrs by LC/CLND analysis; assay type: physicochemical; conditions: read-out: Kinetic_solubility
MDCK = test: Efflux ratio of apparent permeability from apical to basolateral side over basolateral to apical side in MDCK cells at 2 uM by LC-MS/MS analysis; assay type: ADME, cell-based, Canis lupus familiaris; conditions: dog
[6] = molecular target: T1, Nuclear receptor ROR-gamma (Homo sapiens, UniProt P51449); test: Inverse agonist activity at N-terminal 6xHis-tagged human RORc ligand binding domain (241 to 486) expressed in bacterial expression system assessed as inhibition of SRC1 co-activator peptide recruitment after 3 hrs by TR-FRET analysis; assay type: functional
T1 sequence (P51449 whole entry): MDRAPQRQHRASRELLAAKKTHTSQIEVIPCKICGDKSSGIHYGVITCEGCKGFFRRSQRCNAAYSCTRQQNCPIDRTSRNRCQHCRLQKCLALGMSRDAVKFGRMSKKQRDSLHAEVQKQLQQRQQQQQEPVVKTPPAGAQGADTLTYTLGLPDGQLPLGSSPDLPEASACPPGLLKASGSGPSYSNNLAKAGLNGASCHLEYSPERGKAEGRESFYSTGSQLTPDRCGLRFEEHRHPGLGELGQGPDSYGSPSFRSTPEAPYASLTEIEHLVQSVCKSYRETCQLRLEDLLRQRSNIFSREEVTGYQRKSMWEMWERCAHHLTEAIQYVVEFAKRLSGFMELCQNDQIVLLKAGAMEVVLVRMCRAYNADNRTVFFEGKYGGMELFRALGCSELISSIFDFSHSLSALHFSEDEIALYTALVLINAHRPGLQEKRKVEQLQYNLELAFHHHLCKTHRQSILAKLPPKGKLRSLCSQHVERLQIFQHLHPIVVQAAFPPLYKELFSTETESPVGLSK

[7] = molecular target: T2, Peroxisome proliferator-activated receptor gamma (Homo sapiens, UniProt P37231); test: Displacement of fluormone PPARgamma green from GST-tagged human PPARgamma-LBD after 2 hrs by fluorescence polarization assay
T2 sequence (P37231 whole entry): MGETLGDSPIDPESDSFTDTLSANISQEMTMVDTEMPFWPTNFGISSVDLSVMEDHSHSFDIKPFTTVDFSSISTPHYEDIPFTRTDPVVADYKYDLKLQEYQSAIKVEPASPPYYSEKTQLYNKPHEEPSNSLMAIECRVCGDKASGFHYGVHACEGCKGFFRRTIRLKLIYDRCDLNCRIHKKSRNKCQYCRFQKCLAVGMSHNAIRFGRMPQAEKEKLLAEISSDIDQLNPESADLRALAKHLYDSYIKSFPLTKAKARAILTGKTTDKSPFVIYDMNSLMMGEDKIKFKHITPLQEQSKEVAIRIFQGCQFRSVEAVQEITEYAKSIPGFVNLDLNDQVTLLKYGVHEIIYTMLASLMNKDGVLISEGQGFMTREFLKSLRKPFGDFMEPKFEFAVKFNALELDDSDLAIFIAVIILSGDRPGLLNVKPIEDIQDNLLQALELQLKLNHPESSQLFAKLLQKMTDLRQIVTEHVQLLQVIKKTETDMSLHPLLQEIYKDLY

[8] = Plasma clearance in Sprague-Dawley rat at 0.5 mg/kg, iv; assay type: ADME, organism-based
[9] = Volume of distribution in Sprague-Dawley rat at 0.5 mg/kg, iv; assay type: ADME, organism-based; conditions: in vivo
[10] = Cmax in Sprague-Dawley rat at […], po; assay type: ADME, organism-based; set-up: dose 1.5 mg/kg, route oral; conditions: in vivo
[11] = AUC in Sprague-Dawley rat at […], po; assay type: ADME, organism-based; conditions: in vivo
[12] = Half life in Sprague-Dawley rat at 0.5 mg/kg, iv; assay type: ADME, organism-based; conditions: in vivo
[13] = Oral bioavailability in Sprague-Dawley rat at […]; assay type: ADME, organism-based; conditions: in vivo

Row | SMILES | fraction unbound at 4 h, 5 µM [1] | fraction unbound at 4 h, 5 µM [2] | Papp A→B at 2 µM [3] | Papp B→A at 2 µM [4] | solubility kinetic at 24 h [5] | Ratio (MDCK) | EC50 [6] | IC50 [7] | clearance [8] | Vd [9] | Cmax [10] | AUC [11] | half-life [12] | bioavailability [13]
1 | O=C(O)c1ccc(-c2nc(C(=O)c3c(Cl)cccc3C3CC3)n3cccnc23)cc1O | 0.01 | 0.01 | 8 ×10⁻⁶ cm/s | 15 ×10⁻⁶ cm/s | 45 µM (≈ 19.5 µg/mL) | < 2 | 2 nM | 3400 nM | – | – | – | – | – | –
2 | O=C(O)c1ccc(-c2nc(C(=O)c3c(Cl)cccc3C(F)(F)F)n3c2CCCC3)c(F)c1 | – | – | – | – | – | – | 32 nM | 760 nM | – | – | – | – | – | –
3 | O=C(O)c1ccc(-c2nc(C(=O)c3c(Cl)cccc3C(F)(F)F)n3ccccc23)cc1O | < 0.01 | < 0.01 | 12 ×10⁻⁶ cm/s | 10 ×10⁻⁶ cm/s | 86 µM (≈ 39.6 µg/mL) | < 2 | 2 nM | 650 nM | 130 mL/min/kg | 1.2 L/kg | 70 nM | 0.25 µM·h | 12 min | 40%
4 | O=C(O)c1ccc(-c2nc(C(=O)c3c(Cl)cccc3C3CC3)n3c2CCCC3)c(F)c1 | – | – | – | – | – | – | 27 nM | 1300 nM | – | – | – | – | – | –
5 | O=C(O)c1ccc(-c2nc(C(=O)c3c(Cl)cccc3C(F)(F)F)n3ccccc23)c(F)c1 | – | – | – | – | – | – | 9 nM | 320 nM | – | – | – | – | – | –
